Data from paper PMC11078746 (Nature, 2024).
Read-outs that look alike come from different tables or passages of the source.

Key:
LOVO = experiment: 4 day proliferation assay (CellTiter-Glo); conditions: Homo sapiens, 96 h, read-out: 4 day assay GI50
CW2 = experiment: 4 day proliferation assay (CellTiter-Glo); conditions: Homo sapiens, CW-2, 96 h, read-out: 4 day assay GI50
SNU407 = experiment: 4 day proliferation assay (CellTiter-Glo); conditions: Homo sapiens, SNU-407, 96 h, read-out: 4 day assay GI50
SW48 = experiment: 4 day proliferation assay (CellTiter-Glo); conditions: for GI50: Homo sapiens, SW48, 96 h
HCT116 cells = experiment: Cell cycle analysis by flow cytometry; type: cell-based, human; conditions: 10 µM for 24 h
Procedure: About 2 × 10^6 cells were collected by trypsin and washed once with PBS. Cells were pelleted and fixed in 100 µl 4% formaldehyde (Sigma-Aldrich, 47608) for 15 min at room temperature. Cells were washed by centrifugation with an excess of 1× PBS. Pellets were resuspended in 100 µl 1× PBS, then 900 µl of ice-cold methanol (Sigma-Aldrich, 34860) was added drop by drop while vortexing. Cells were incubated for 10 min on ice to permeabilize them. Cells were washed by centrifugation with excess of 1× PBS, pellets were resuspended in 100 µl anti-phosphorylated-histone H3 Ser10 conjugated to PE (Cell Signalling Technology, 5764) antibodies diluted 1:50 in 0.5% BSA PBS buffer and incubated for 1 h at room temperature protected from the light. […] Stained cells were analysed on the Cytoflex flow cytometer (Beckman Coulter).
Data were collected in 10^5 particle units and analysed with CytExpert v.2.4 software. […] These singlets were then analysed for DAPI (DNA content) and PE (phosphorylated histone H3 Ser10) staining intensities. Data were analysed to show the percentage of nuclei in the G1, S and G2/M phases using the DAPI channel and the percentage of cells specifically in G2 or M phase using the PE channel.

SNUC2A = experiment: CFA 10-14 day clonogenic assay; type: cell-based; conditions: Homo sapiens
HEC251 = experiment: CFA 10-14 day clonogenic assay; type: cell-based; conditions: Homo sapiens, HEC-251
EN = experiment: CFA 10-14 day clonogenic assay; type: cell-based; conditions: Homo sapiens

CCc1c(N2CCN(C(=O)c3ncnc(C)c3O)CC2)c(=O)n2nc(C3=CCOCC3)nc2n1CC(=O)Nc1ccc(C(F)(F)F)cc1Cl [HRO761]
GI50 (LOVO): 1240 nM | GI50 (CW2): 112 nM | GI50 (SNU407): 440 nM | GI50 (SW48; HRO761 alone): 100 nM | GI50 (SW48; HRO761 dose response with 3.2 µM ATMi KU-55933): 200 nM | GI50 (SW48; read-out: 4 day assay GI50, SW48): 58 nM | unbound GI90 (SW48; SW48): 0.16 µM | cell cycle effect (HCT116 cells): potent G2 cell cycle arrest | GI50 (SNUC2A): 25 nM | GI50 (HEC251): ≥ 10 µM | GI50 (EN): ≥ 10 µM
